Measured values published in US20140227335A1 (priority 2012, published 2014).
Where two headings read alike, the source gives them in different places.

Experiments:
HIV-1 92TH026 = assay: HIV infectivity assay in TZM-bl cells; format: cell-based; conditions: 92TH026 (clade B, R5); for IC50: Human immunodeficiency virus 1, TZM-bl
HIV-1 92UG005 = assay: HIV infectivity assay in TZM-bl cells; format: cell-based; conditions: 92UG005 (clade D, R5); for IC50: Human immunodeficiency virus 1, TZM-bl
HIV-1 93TH053 = assay: HIV infectivity assay in TZM-bl cells; format: cell-based; conditions: 93TH053 (clade E, X4); for IC50: Human immunodeficiency virus 1, TZM-bl
SIVsyk1.2 = assay: SIV infectivity assay in TZM-bl cells; format: cell-based; conditions: Simian immunodeficiency virus, first value cell of the line (cells shifted; presumably DMEM)
HIV-1 92RW016 = assay: Anti-HIV efficacy in fresh human PBMC (reverse transcriptase activity); format: cell-based; conditions: Human immunodeficiency virus 1, PBMC, 168 h; 92RW016 (clade A, R5); PBMCs, MOI = 0.1, 7 days
HIV-1 92UG029 = assay: as above; format: cell-based; conditions: Human immunodeficiency virus 1, PBMC, 168 h; 92UG029 (clade A, X4); PBMCs, MOI = 0.1, 7 days
HIV-1 93BR021 = assay: as above; format: cell-based; conditions: Human immunodeficiency virus 1, PBMC, 168 h; 93BR021 (clade B, R5); PBMCs, MOI = 0.1, 7 days
HIV-1 98IN022 = assay: as above; format: cell-based; conditions: Human immunodeficiency virus 1, PBMC, 168 h; 98IN022 (clade C, R5); PBMCs, MOI = 0.1, 7 days
[1] = system: Lactobacillus crispatus ATCC 33197; assay: Lactobacillus toxicity testing (CFU); format: cell-based
Method: (§1) Reference strains of L. crispatus and L. jensenii were obtained from the ATCC (Manassas, Va.) and cultured on Columbia blood agar plates at 35° C. in air enriched with 6% CO2. Bacterial suspensions were prepared in saline or ACES buffer to a density of 2 McFarland units (˜2×10^8 bacteria/mL), and exposed to PD (300 μM) or DMSO (10%) for 30 minutes at 37° C. After incubation, the cells were serially diluted in ACES buffer, pH 7.0 (Sigma-Aldrich, St. Louis, Mo.) and plated on blood agar plates to quantify colony forming unit per mL (CFU/mL)
(§2) Different bacterial strains were incubated with 300 μM PD or solvent DMSO-containing control media at 37° C. for 30 min and plated on blood agar plates to estimate their corresponding colony forming units per ml (CFU/ml). Less than 1 log difference between control and test CFU is considered non-toxic 17.

[2] = system: Lactobacillus jensenii ATCC 25258; assay: Lactobacillus toxicity testing (CFU); format: cell-based
Method: as §1, §2

[3] = system: Lactobacillus jensenii LBP 28Ab; assay: Lactobacillus toxicity testing (CFU); format: cell-based
Method: as §1, §2

HCVcc = HCVcc cell attachment assay; format: cell-based, HCV; conditions: 300 μM PD, 37° C., 90 min; cell-bound viral RNA by qRT-PCR
[4] = system: Dengue virus (DenV), serotype 2 New Guinea C strain; assay: Dengue virus plaque assay on Vero cells; format: cell-based; conditions: 300 μM PD
HIV-1 (X4 NL4.3) = assay: HIV-1 sedimentation assay; conditions: 10 μM PD, 30 min, 37° C.
[5] = system: pseudotyped NL4.3 Env-eGFP/gp160 Env virus; assay: HIV-1 cell-to-cell transfer assay (DC to Jurkat T cells); format: cell-based; conditions: 10 μM PD added to DC 2 h after virus, washed after 2 h
[6] = Primary cells toxicity testing (LDH); format: cell-based; conditions: human, primary CD4+ T-lymphocytes, macrophages and dendritic cells, up to 14 days
Method: Increasing concentrations were incubated with primary CD4^+ T-lymphocytes, macrophages and dendritic cells at 37° C. and the amounts of lactate dehydrogenase (LDH) present in the culture media were quantified after 0, 7 and 14 days. Error bars represent the standard deviation from two independent experiments.
Primary cells were seeded at 6×10^3 cells/well in flat bottom 96-well plates in triplicates in the presence of increasing concentrations of PD. We used the permeabilization agent saponin (0.1%) as positive control. After 0, 7 and 14 days, the amounts of lactate dehydrogenase (LDH) in the cell culture media were quantified using the LDH Cytotoxicity Assay Kit (Cayman Chemical, Ann Arbor, Mich.).
Cell death can occur either by apoptosis or by necrosis. Necrosis is accompanied by mitochondrial swelling and increased plasma membrane permeability, whereas apoptosis involves an articulated breakdown of the cell into membrane-bound apoptotic bodies. Lactate dehydrogenase (LDH) is a soluble cytosolic enzyme that is released into the culture medium following loss of membrane integrity resulting from either apoptosis or necrosis. LDH activity, therefore, can be used as an indicator of cell membrane integrity and serves as a general means to assess cytotoxicity resulting from chemical compounds or environmental toxic factors. […]

VSV-Gpp, HIVpp = format: cell-based, HIV pseudotyped lentiviruses
[7] = 300 μM PD, less than 1 log difference is considered non-toxic

N=C1Sc2ccccc2C2=NCCCN12 [PD, PD 404,182] showed an IC90 (HIV-1 92TH026; PD in DMEM + 10% FBS) of 2.8 ± 0.2 µM, an IC90 (HIV-1 92TH026; PD in cervical fluids) of 3.3 ± 0.1 µM and an IC90 (HIV-1 92TH026; PD in seminal plasma) of 2.95 ± 0.16 µM. The IC50 (HIV-1 92TH026; PD in DMEM + 10% FBS) was 0.35 µM, the IC50 (HIV-1 92TH026; PD in cervical fluids) was 0.61 µM and the IC50 (HIV-1 92TH026; PD in seminal plasma) was 0.43 µM. For the same molecule, the “IC50 (DMEM; IC90 per footnote)” value (HIV-1 92UG005; PD in DMEM + 10% FBS) was 5.3 ± 0.4 µM, the “IC50 (Cervical Fluid; IC90 per footnote)” value (HIV-1 92UG005; PD in cervical fluids) was 5.7 ± 0.3 µM and the “IC50 (Seminal Plasma; IC90 per footnote)” value (HIV-1 92UG005; PD in seminal plasma) was 5.57 ± 0.44 µM. For the same molecule, the IC50 (HIV-1 92UG005; PD in DMEM + 10% FBS) was 1.26 µM, the IC50 (HIV-1 92UG005; PD in cervical fluids) was 1.39 µM and the IC50 (HIV-1 92UG005; PD in seminal plasma) was 1.32 µM. For the same molecule, the IC90 (HIV-1 93TH053; PD in DMEM + 10% FBS) was 5.3 ± 0.3 µM, the IC90 (HIV-1 93TH053; PD in cervical fluids) was 6.4 ± 0.4 µM and the IC90 (HIV-1 93TH053; PD in seminal plasma) was 6.65 ± 0.48 µM. It also gave an IC50 (HIV-1 93TH053; PD in DMEM + 10% FBS) of 1.4 µM, an IC50 (HIV-1 93TH053; PD in cervical fluids) of 1.8 µM and an IC50 (HIV-1 93TH053; PD in seminal plasma) of 1.67 µM. For the same molecule, the IC50 (SIVsyk1.2) was 1.9 µM, the IC50 (HIV-1 92RW016) was 0.22 µM and the IC90 (HIV-1 92RW016) was 0.54 µM. For the same molecule, the IC50 (HIV-1 92UG029) was 1.18 µM, the IC90 (HIV-1 92UG029) was 4.67 µM and the IC50 (HIV-1 93BR021) was 0.6 µM. For the same molecule, the IC90 (HIV-1 93BR021) was 4.26 µM, the IC50 (HIV-1 98IN022) was 0.4 µM and the IC90 (HIV-1 98IN022) was 1.48 µM. The “Log(Control) − Log(PD)” value [1, 7] was −0.019, the “CFU of Lactobacillus treated with 300 μM PD” value (shortened to “CFU of Lactobacillus treated”) ([1]; 30 min, 37° C.) was 7,260,000 CFU and the “Log(Control) − Log(PD)” value [2, 7] was −0.122. For the same molecule, the “CFU of Lactobacillus treated” value ([2]; 30 min, 37° C.) was 7,533,333 CFU, the “Log(Control) − Log(PD)” value [3, 7] was −0.021 and the “CFU of Lactobacillus treated” value ([3]; 30 min, 37° C.) was 10,033,333 CFU. For the same molecule, the “attachment of PD-treated HCVcc to cells” value (HCVcc) was “binds to cells comparably to control DMSO-treated virus”, the “effect on infectivity of DenV” value [4] was “no significant inhibitory effect” and the “sedimentation of HIV capsid and RT in sucrose gradient” value (HIV-1 (X4 NL4.3)) was “viral capsid and RT relocate to the top of the gradient”. For the same molecule, the “DC-mediated transmission of HIV-1 to T cells” value [5] was “prevents subsequent T cell infection with the pseudotyped virus”, the CC50 at 14 days [6] was greater than 300 µM and the “increase in IC50” value (VSV-Gpp, HIVpp) was 50-80 fold. The “stability in acidic buffer” value (VSV-Gpp; pH 4) was “highly stable”, the activity loss (VSV-Gpp; pH 8) was “no activity loss” and the antiviral activity lost (VSV-Gpp; pH 8) was roughly 20%. It also gave an activity loss (VSV-Gpp; pH 10) of roughly 20% and an antiviral activity lost (VSV-Gpp; pH 10) of roughly 50%.
